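Growth conditions: 96-well plates. Treatment: test compound, 48 hours, 5 concentrations. Analysis: linear interpolation between bracketing concentrations; unreached endpoints set to highest concentration. GI50 marks 50% less growth. TGI: total growth inhibition.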
What was measured:
Experiment in all cases: NCI anticancer screen, dose series, 48 h
SF-539 CNS = tested on: SF-539 CNS
SN12C renal = tested on: SN12C renal
SK-MEL-28 melanoma = tested on: SK-MEL-28 melanoma
HCC-2998 colon = tested on: HCC-2998 colon
NCI-H460 lung = tested on: NCI-H460 lung
MALME-3M melanoma = tested on: MALME-3M melanoma
ACHN renal = tested on: ACHN renal
HT29 colon = tested on: HT29 colon
SR leukemia = tested on: SR leukemia
DU-145 prostate = tested on: DU-145 prostate
TK-10 renal = tested on: TK-10 renal
SNB-19 CNS = tested on: SNB-19 CNS
T-47D breast = tested on: T-47D breast
IGROV1 ovarian = tested on: IGROV1 ovarian
CCRF-CEM leukemia = tested on: CCRF-CEM leukemia
RXF 393 renal = tested on: RXF 393 renal
LOX IMVI melanoma = tested on: LOX IMVI melanoma
OVCAR-8 ovarian = tested on: OVCAR-8 ovarian
OVCAR-4 ovarian = tested on: OVCAR-4 ovarian
BT-549 breast = tested on: BT-549 breast
SW-620 colon = tested on: SW-620 colon
A498 renal = tested on: A498 renal
786-0 renal = tested on: 786-0 renal
NCI-H23 lung = tested on: NCI-H23 lung
SF-268 CNS = tested on: SF-268 CNS
HOP-62 NSCLC = tested on: HOP-62 NSCLC
SNB-75 CNS = tested on: SNB-75 CNS
U251 CNS = tested on: U251 CNS
COLO 205 colon = tested on: COLO 205 colon
NCI-H522 lung = tested on: NCI-H522 lung
UACC-257 melanoma = tested on: UACC-257 melanoma
HCT-116 colon = tested on: HCT-116 colon
HOP-92 NSCLC = tested on: HOP-92 NSCLC
SF-295 CNS = tested on: SF-295 CNS
M14 melanoma = tested on: M14 melanoma
OVCAR-5 ovarian = tested on: OVCAR-5 ovarian
RPMI-8226 leukemia = tested on: RPMI-8226 leukemia
HL-60(TB) leukemia = tested on: HL-60(TB) leukemia
EKVX NSCLC = tested on: EKVX NSCLC
MOLT-4 leukemia = tested on: MOLT-4 leukemia
UO-31 renal = tested on: UO-31 renal
SK-MEL-5 melanoma = tested on: SK-MEL-5 melanoma
UACC-62 melanoma = tested on: UACC-62 melanoma
OVCAR-3 ovarian = tested on: OVCAR-3 ovarian
NCI-H226 lung = tested on: NCI-H226 lung
HCT-15 colon = tested on: HCT-15 colon
HS 578T breast = tested on: HS 578T breast
KM12 colon = tested on: KM12 colon
K-562 leukemia = tested on: K-562 leukemia
MDA-MB-435 = tested on: MDA-MB-435
A549 NSCLC = tested on: A549 NSCLC
MCF7 breast = tested on: MCF7 breast
PC-3 prostate = tested on: PC-3 prostate
SK-OV-3 ovarian = tested on: SK-OV-3 ovarian
CAKI-1 renal = tested on: CAKI-1 renal
MDA-MB-468 breast = tested on: MDA-MB-468 breast
MDA-MB-231 breast = tested on: MDA-MB-231 breast

Structure (SMILES): CC1(C)CC[C@]2(C(=O)Nc3ccc(Br)cc3)CC[C@]3(C)C(=CCC4[C@@]5(C)C[C@@H](O)[C@H](O)[C@@](C)(CO)C5CC[C@]43C)C2C1 (some centres undefined)
- GI50 (SF-539 CNS): 15.9 µM
- TGI (SF-539 CNS): 30 µM
- GI50 (SN12C renal): 16.6 µM
- TGI (SN12C renal): 31.8 µM
- GI50 (SK-MEL-28 melanoma): 16.1 µM
- TGI (SK-MEL-28 melanoma): 35.8 µM
- GI50 (HCC-2998 colon): 16.2 µM
- TGI (HCC-2998 colon): 31 µM
- GI50 (NCI-H460 lung): 17.5 µM
- TGI (NCI-H460 lung): 38.3 µM
- GI50 (MALME-3M melanoma): 16.1 µM
- TGI (MALME-3M melanoma): 30.4 µM
- GI50 (ACHN renal): 14.6 µM
- TGI (ACHN renal): 28.2 µM
- GI50 (HT29 colon): 12.9 µM
- TGI (HT29 colon): 26.7 µM
- GI50 (SR leukemia): 19.1 µM
- TGI (SR leukemia): > 100 µM
- GI50 (DU-145 prostate): 26.7 µM
- TGI (DU-145 prostate): 81 µM
- GI50 (TK-10 renal): 19.8 µM
- TGI (TK-10 renal): 49.9 µM
- GI50 (SNB-19 CNS): 25.8 µM
- TGI (SNB-19 CNS): > 100 µM
- GI50 (T-47D breast): 13.4 µM
- TGI (T-47D breast): 30.4 µM
- GI50 (IGROV1 ovarian): 17.1 µM
- TGI (IGROV1 ovarian): 37.7 µM
- GI50 (CCRF-CEM leukemia): 23.2 µM
- TGI (CCRF-CEM leukemia): 75.9 µM
- GI50 (RXF 393 renal): 12.6 µM
- TGI (RXF 393 renal): 25.6 µM
- GI50 (LOX IMVI melanoma): 17.8 µM
- TGI (LOX IMVI melanoma): 33 µM
- GI50 (OVCAR-8 ovarian): 24 µM
- TGI (OVCAR-8 ovarian): 73.7 µM
- GI50 (OVCAR-4 ovarian): 15.1 µM
- TGI (OVCAR-4 ovarian): 35.8 µM
- GI50 (BT-549 breast): 16.4 µM
- TGI (BT-549 breast): 33.2 µM
- GI50 (SW-620 colon): 25.7 µM
- TGI (SW-620 colon): > 100 µM
- GI50 (A498 renal): 19 µM
- TGI (A498 renal): 34.6 µM
- GI50 (786-0 renal): 16.7 µM
- TGI (786-0 renal): 31.5 µM
- GI50 (NCI-H23 lung): 17.1 µM
- TGI (NCI-H23 lung): 33.6 µM
- GI50 (SF-268 CNS): 20.9 µM
- TGI (SF-268 CNS): 71.9 µM
- GI50 (HOP-62 NSCLC): 15 µM
- TGI (HOP-62 NSCLC): 31.8 µM
- GI50 (SNB-75 CNS): 14.5 µM
- TGI (SNB-75 CNS): 60.7 µM
- GI50 (U251 CNS): 16.6 µM
- TGI (U251 CNS): 33.5 µM
- GI50 (COLO 205 colon): 15.2 µM
- TGI (COLO 205 colon): 32.8 µM
- GI50 (NCI-H522 lung): 17.1 µM
- TGI (NCI-H522 lung): 34.6 µM
- GI50 (UACC-257 melanoma): 20.2 µM
- TGI (UACC-257 melanoma): 56.1 µM
- GI50 (HCT-116 colon): 13.5 µM
- TGI (HCT-116 colon): 26.9 µM
- GI50 (HOP-92 NSCLC): 14.5 µM
- TGI (HOP-92 NSCLC): 31.6 µM
- GI50 (SF-295 CNS): 15.8 µM
- TGI (SF-295 CNS): 30.6 µM
- GI50 (M14 melanoma): 17.4 µM
- TGI (M14 melanoma): 40.8 µM
- GI50 (OVCAR-5 ovarian): 13.2 µM
- TGI (OVCAR-5 ovarian): 27.2 µM
- GI50 (RPMI-8226 leukemia): 19.5 µM
- TGI (RPMI-8226 leukemia): 72.3 µM
- GI50 (HL-60(TB) leukemia): 18.2 µM
- TGI (HL-60(TB) leukemia): 50.7 µM
- GI50 (EKVX NSCLC): 16.6 µM
- TGI (EKVX NSCLC): 41.6 µM
- GI50 (MOLT-4 leukemia): 13.2 µM
- TGI (MOLT-4 leukemia): 50 µM
- GI50 (UO-31 renal): 13.5 µM
- TGI (UO-31 renal): 33.4 µM
- GI50 (SK-MEL-5 melanoma): 15.7 µM
- TGI (SK-MEL-5 melanoma): 29.1 µM
- GI50 (UACC-62 melanoma): 12 µM
- TGI (UACC-62 melanoma): 25.2 µM
- GI50 (OVCAR-3 ovarian): 17.1 µM
- TGI (OVCAR-3 ovarian): 34 µM
- GI50 (NCI-H226 lung): 16.8 µM
- TGI (NCI-H226 lung): 34.2 µM
- GI50 (HCT-15 colon): 14.6 µM
- TGI (HCT-15 colon): 29 µM
- GI50 (HS 578T breast): 20.1 µM
- TGI (HS 578T breast): 63.5 µM
- GI50 (KM12 colon): 18.1 µM
- TGI (KM12 colon): 38.1 µM
- GI50 (K-562 leukemia): 23.1 µM
- TGI (K-562 leukemia): > 100 µM
- GI50 (MDA-MB-435): 15.9 µM
- TGI (MDA-MB-435): 31.4 µM
- GI50 (A549 NSCLC): 30.5 µM
- TGI (A549 NSCLC): > 100 µM
- GI50 (MCF7 breast): 14.9 µM
- TGI (MCF7 breast): 34.9 µM
- GI50 (PC-3 prostate): 14.5 µM
- TGI (PC-3 prostate): 40.8 µM
- GI50 (SK-OV-3 ovarian): 16.5 µM
- TGI (SK-OV-3 ovarian): 38.6 µM
- GI50 (CAKI-1 renal): 12.6 µM
- TGI (CAKI-1 renal): 40.8 µM
- GI50 (MDA-MB-468 breast): 15 µM
- TGI (MDA-MB-468 breast): 29.4 µM
- GI50 (MDA-MB-231 breast): 15.3 µM
- TGI (MDA-MB-231 breast): 30 µM
